Test results published in article PMC6152416, “Pharmacological and Toxicological Screening of Novel Benzimidazole-Morpholine Derivatives as Dual-Acting Inhibitors” (Molecules : A Journal of Synthetic Chemistry and Natural …, 2017).

How the values were obtained:
[1] = biological target: T1, COX-1 (Ovis aries, UniProt P05979); assay: Fluorimetric COX-1 inhibition screening kit (BioVision); type: biochemical; details: for COX-1 inhibition at the initial concentrations: 10^−3 M and 10^−4 M; for inhibition at 10 µM: 10^−5 M; for inhibition at 1 µM: 10^−6 M; for inhibition at 0.1 µM: 10^−7 M; for inhibition at 0.01 µM: 10^−8 M; for inhibition at 0.001 µM: 10^−9 M
T1 construct: purchased BioVision (Milpitas, CA, USA) K548-100
Description: Inhibitory potency of the compounds on COX-1 and COX-2 enzymes was determined by using fluorimetric COX-1 and COX-2 inhibition screening kits from BioVision (Milpitas, CA, USA). The experimental protocol as described in the guides provided by the supplier was followed. All of the pipetting were performed using a robotized system to increase speed, accuracy and precision. Fluorescence intensities of the samples were kinetically measured at 25 °C for 5–10 min by monitoring emissions at 587 nm after excitation at 535 nm. Two appropriate points (T1 and T2) in the linear range of the plot were chosen and the corresponding fluorescence values (RFU1 and RFU2) were obtained. The slope for all samples including Enzyme Control (EC) was calculated by dividing the net ΔRFU (RFU2 − RFU1) values by the time ΔT (T2 − T1). Percentage of relative inhibition was calculated by using the following equation:% Relative inhibition = (Slope of EC − Slope of S/Slope of EC) × 100 where S is the term representing the tested compound [51, 52]. […] The IC50 values were calculated using the plots of the enzyme activity against concentrations by applying regression analyses.

[2] = Ames MPF genotoxicity assay; type: cell-based, Salmonella typhimurium; details: Salmonella typhimurium; TA100, with/without S9, each concentration level; read-out: fold inductions over baseline
Description: The genotoxicity of selected compounds (2b, 2j, 2m) was determined by Ames assay using Ames MPF 98/100 mutagenicity assay sample kit (Xenometrix AG, Allschwil, Switzerland) as previously described elsewhere. Salmonella typhimurium strains, TA98 (frameshift mutations) and TA100 (base-pair substitutions) were used in the assay. The concentration of the compounds was between 16 and 5000 μg/mL, in accordance with the guideline. Compounds were prepared in six different concentrations (5.0, 2.5, 1.25, 0.625, 0.3125, 0.156 mg/mL) in DMSO. Mutagenic potential was determined in the absence or presence of Aroclor™-1254 induced male Sprague–Dawley rat liver microsomal enzyme (S9) mix (Xenometrix AG). Positive controls without S9 mix were 2-nitrofluorene (2.0 μg/mL) and 4-nitroquinoline N-oxide (0.1 μg/mL), whereas 1.0 μg/mL and 2.5 μg/mL of 2-aminoanthracene solutions were used as positive controls with S9 against TA98 and TA100, respectively. Solvent control was prepared with 4% DMSO. The end of an experiment was determined by the change of the indicator medium colour to yellow, which was originating from the decrease of pH due to revertant bacteria. Yellow wells were counted as positive, and compared with the negative control. Fold induction over the negative control and fold induction over the baseline were calculated (Fold induction over the negative control is accepted as the ratio of the mean number of positive wells for the dose concentration divided by the mean number of positive wells for the zero dose (negative) control. Fold induction over the baseline is accepted as the ratio of the mean number of positive wells for the dose concentration divided by zero dose baseline. The zero-dose baseline is obtained by adding one standard deviation to the mean number of positive wells of the zero dose control. If the baseline is less than 1, the value is set to 1 for calculation).
Mutagenicity was determined according to the criteria reported previously. For a baseline value of ≤3, significant increases between 2 and 3-fold of the baseline were classified as weak mutagen, and increases ≥3-fold of the baseline were classified as mutagen. […] As a rule, at least two adjacent doses with significant increases or a significant increase at the highest dose level should be observed for a mutagenic compound. All of the doses were compared according to Student’s t-test at p < 0.05 for statistical significance.

T1 sequence (P05979 25-600): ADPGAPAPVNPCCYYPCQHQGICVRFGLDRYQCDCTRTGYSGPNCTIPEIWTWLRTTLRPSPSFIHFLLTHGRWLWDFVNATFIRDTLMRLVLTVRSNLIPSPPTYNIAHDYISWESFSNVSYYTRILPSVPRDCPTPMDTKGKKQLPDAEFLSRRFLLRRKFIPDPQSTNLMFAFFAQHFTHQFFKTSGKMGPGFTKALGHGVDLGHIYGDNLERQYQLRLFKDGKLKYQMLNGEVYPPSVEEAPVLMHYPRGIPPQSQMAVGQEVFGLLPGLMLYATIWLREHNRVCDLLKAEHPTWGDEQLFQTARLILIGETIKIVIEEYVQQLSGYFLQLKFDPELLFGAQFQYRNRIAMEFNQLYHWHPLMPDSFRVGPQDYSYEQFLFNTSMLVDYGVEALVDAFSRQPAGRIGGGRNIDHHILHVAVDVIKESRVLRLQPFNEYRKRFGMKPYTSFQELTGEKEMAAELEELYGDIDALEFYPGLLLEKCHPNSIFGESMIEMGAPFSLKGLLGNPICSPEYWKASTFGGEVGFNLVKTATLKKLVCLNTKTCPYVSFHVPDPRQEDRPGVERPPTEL

| Compound | IC50 [1] [µM] | COX-1 Inhibition (%) ([1]; 10^-3 M) | COX-1 Inhibition (%) ([1]; 10^-4 M) | COX-1 inhibition at the initial concentrations [1] | inhibition at 10 µM [1] [%] | inhibition at 1 µM [1] [%] | inhibition at 0.1 µM [1] [%] | inhibition at 0.01 µM [1] [%] | inhibition at 0.001 µM [1] [%] | fold induction [2] |
| --- | --- | --- | --- | --- | --- | --- | --- | --- | --- | --- |
| FC(F)(F)Oc1ccc(-c2nc3ccccc3n2CCN2CCOCC2)cc1 [Compound 2m, 2-(4-Trifluoromethoxyphenyl)-1-[2-(morpholin-4-yl)ethyl]-1H-benzimidazole] | 21.9 | 79.15 | 78.61 | more than 50% | 47.4 ± 1.16 | 42 ± 0.88 | 36.6 ± 0.92 | 26.2 ± 0.79 | 20 ± 0.62 | < 1.5 |
| Clc1ccc(-c2nc3ccccc3n2CCN2CCOCC2)cc1 [Compound 2c, 2-(4-Chlorophenyl)-1-[2-(morpholin-4-yl)ethyl]-1H-benzimidazole] | – | 24.55 | 22.15 | – | – | – | – | – | – | – |
| CCOc1ccc(-c2nc3ccccc3n2CCN2CCOCC2)cc1 [Compound 2j, 2-(4-Ethoxyphenyl)-1-[2-(morpholin-4-yl)ethyl]-1H-benzimidazole] | 14.2 | 85.07 | 88.68 | more than 50% | 51.4 ± 1.15 | 44.5 ± 1.07 | 37.7 ± 0.76 | 27.5 ± 0.82 | 23.4 ± 0.61 | – |
| CC(C)c1ccc(-c2nc3ccccc3n2CCN2CCOCC2)cc1 [Compound 2e, 2-(4-Isopropylphenyl)-1-[2-(morpholin-4-yl)ethyl]-1H-benzimidazole] | – | 26.47 | 19.88 | – | – | – | – | – | – | – |
| COc1ccc(-c2nc3ccccc3n2CCN2CCOCC2)cc1 [Compound 2b, 2-(4-Methoxyphenyl)-1-[2-(morpholin-4-yl)ethyl]-1H-benzimidazole] | 8.1 | 90.12 | 87.62 | more than 50% | 59.4 ± 1.24 | 42.8 ± 1.02 | 37.1 ± 0.92 | 26.8 ± 0.87 | 19.6 ± 0.76 | < 1.5 |
